According to the supplement of paper PMC10307832:

Legend:
Assay in all cases: relative viability (nuclei count vs DMSO), 5 days (fraction); higher = more cells survive
Daporinad = compound: O=C(/C=C/c1cccnc1)NCCCCC1CCN(C(=O)c2ccccc2)CC1 [Daporinad]
Method in brief: (§1)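 Lung cancer cell lines received five library-drug doses (not always all listed) spaced by √10, pinned on vehicle-anchored 1536-well plates after an overnight stay at 37 °C. Five days later, with no medium change, nuclei were Hoechst-stained, imaged at 4× and counted with MetaXpress. Viability is treated-well nuclei relative to vehicle-well nuclei, as a median across plates. Passing plates had control CV below 25% and at least one doubling.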

R406 = compound: COc1cc(Nc2ncc(F)c(Nc3ccc4c(n3)NC(=O)C(C)(C)O4)n2)cc(OC)c1OC [R406]
Method in brief: as §1

Daporinad + Pemetrexed = compound: O=C(/C=C/c1cccnc1)NCCCCC1CCN(C(=O)c2ccccc2)CC1 [Daporinad] + Nc1nc2[nH]cc(CCc3ccc(C(=O)N[C@@H](CCC(=O)O)C(=O)O)cc3)c2c(=O)[nH]1 [Pemetrexed] (partner 0.2 µM)
Method in brief: (§2)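 The day after seeding in 1536-well plates, lung cancer cell lines were treated by pin tool with a single drug, or with a fixed anchor-drug dose together with five library-drug doses (not always all listed) in √10 steps. After 5 days, a combined fix-and-stain solution (final 0.05% Triton X-100, 1% formaldehyde, 1 ug/ml Hoechst) was added. Nuclei counted on 4× images gave relative viability as treated counts over vehicle counts, reported as the median of duplicate plates.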

R406 + OSI-027 = compound: COc1cc(Nc2ncc(F)c(Nc3ccc4c(n3)NC(=O)C(C)(C)O4)n2)cc(OC)c1OC [R406] + COc1cccc2cc(-c3nc([C@H]4CC[C@H](C(=O)O)CC4)n4ncnc(N)c34)[nH]c12 [OSI-027] (partner 0.5 µM)
Method in brief: as §2

| Cell Line | relative viability (Daporinad; 0.0005 µM) | relative viability (Daporinad; 0.001581 µM) | relative viability (Daporinad; 0.005 µM) | relative viability (Daporinad; 0.01581 µM) | relative viability (R406; 0.08 µM) | relative viability (R406; 0.253 µM) | relative viability (R406; 0.8 µM) | relative viability (R406; 2.53 µM) | relative viability (R406; 8 µM) | relative viability (Daporinad + Pemetrexed; first compound 0.0005 µM) | relative viability (Daporinad + Pemetrexed; first compound 0.001581 µM) | relative viability (Daporinad + Pemetrexed; first compound 0.005 µM) | relative viability (Daporinad + Pemetrexed; first compound 0.01581 µM) | relative viability (R406 + OSI-027; first compound 0.08 µM) | relative viability (R406 + OSI-027; first compound 0.253 µM) | relative viability (R406 + OSI-027; first compound 0.8 µM) | relative viability (R406 + OSI-027; first compound 2.53 µM) | relative viability (R406 + OSI-027; first compound 8 µM) |
| --- | --- | --- | --- | --- | --- | --- | --- | --- | --- | --- | --- | --- | --- | --- | --- | --- | --- | --- |
| 201T | 0.962 | 1.04 | 0.972 | 1.01 | 0.929 | 1.02 | 1.06 | 0.844 | 0.67 | 0.333 | 0.315 | 0.313 | 0.34 | 0.974 | 0.762 | 0.705 | 0.683 | 0.517 |
| A549 | 1.03 | 1.05 | 0.944 | 0.903 | 0.898 | 1.02 | 1.1 | 0.857 | 0.518 | – | – | – | – | – | – | – | – | – |
| A-427 | 0.952 | 1.12 | 0.982 | 0.602 | 0.974 | 1.23 | 1.14 | 0.708 | 0.639 | 0.981 | 1.02 | 0.937 | 0.662 | 0.568 | 0.523 | 0.508 | 0.245 | 0.238 |
| ABC-1 | 0.802 | 0.934 | 0.832 | 0.659 | 0.761 | 1.06 | 0.895 | 0.619 | 0.535 | – | – | – | – | 0.554 | 0.477 | 0.531 | 0.341 | 0.304 |
| BEN | 0.962 | 1.04 | 0.969 | 1.31 | 0.862 | 1.24 | 1.03 | 1.05 | 0.832 | 0.726 | 0.792 | 0.953 | 0.935 | 0.291 | 0.299 | 0.286 | 0.298 | 0.281 |
| CAL-12T | 0.904 | 1.03 | 0.735 | 0.269 | 0.993 | 1.22 | 1.12 | 0.511 | 0.434 | 1.09 | 1.21 | 0.502 | 0.314 | 0.654 | 0.702 | 0.895 | 0.133 | 0.209 |
| COR-L23 | 1.02 | 1.04 | 0.908 | 0.275 | 0.953 | 1.17 | 1.16 | 0.901 | 0.592 | 0.194 | 0.198 | 0.208 | 0.196 | 0.704 | 0.794 | 0.995 | 0.527 | 0.397 |
| COR-L 105 | 0.906 | 0.976 | 0.991 | 0.969 | 0.911 | 1.05 | 1.12 | 0.666 | 0.418 | 1.21 | 1 | 1.18 | 1.02 | 0.659 | 0.612 | 0.752 | 0.405 | 0.235 |
| Calu-6 | 0.955 | 1.04 | 0.917 | 0.533 | 0.98 | 1.06 | 1.11 | 0.724 | 0.503 | – | – | – | – | – | – | – | – | – |
| ChaGo-K-1 | 1.03 | 0.86 | 0.94 | 0.509 | 0.948 | 1.12 | 0.974 | 0.944 | 0.73 | 0.255 | 0.248 | 0.248 | 0.239 | 0.606 | 0.565 | 0.672 | 0.386 | 0.471 |
| EBC-1 | 0.829 | 1.06 | 1.03 | 1.08 | 0.99 | 1.14 | 1.25 | 0.877 | 0.481 | – | – | – | – | – | – | – | – | – |
| EKVX | 0.933 | 0.95 | 0.974 | 1.14 | 0.928 | 1.12 | 1.1 | 0.855 | 0.722 | 0.344 | 0.468 | 0.389 | 0.343 | 0.721 | 0.739 | 0.778 | 0.601 | 0.552 |
| EMC-BAC-2 | 1.01 | 1.09 | 0.766 | 0.487 | 0.917 | 1.13 | 1.08 | 0.849 | 0.405 | 0.428 | 0.482 | 0.421 | 0.388 | 0.373 | 0.416 | 0.407 | 0.232 | 0.203 |
| EPLC-272H | 0.856 | 1.04 | 1.06 | 1.04 | 0.919 | 0.975 | 1.07 | 0.438 | 0.379 | 0.327 | 0.339 | 0.312 | 0.413 | 0.275 | 0.291 | 0.253 | 0.203 | 0.229 |
| H3255 | 0.842 | 1 | 1.06 | 1.19 | 0.943 | 1.16 | 0.989 | 0.859 | 0.873 | 0.573 | 0.561 | 0.616 | 0.638 | 0.569 | – | 0.651 | 0.426 | 0.406 |
| HARA | 0.903 | 0.958 | 0.964 | 0.583 | 0.975 | 0.965 | 1.1 | 0.676 | 0.365 | 0.24 | 0.258 | 0.227 | 0.276 | 0.621 | 0.668 | 0.591 | 0.22 | 0.198 |
| HCC-15 | 0.967 | 1.15 | 1.14 | 1.05 | 0.919 | 1.23 | 1.17 | 0.81 | 0.629 | 0.225 | 0.22 | 0.237 | 0.199 | 0.701 | 0.928 | 0.832 | 0.505 | 0.439 |
| HCC-44 | 0.992 | 0.993 | 0.97 | 1 | 0.979 | 0.976 | 0.94 | 0.928 | 0.711 | 0.623 | 0.593 | 0.677 | 0.765 | 0.435 | 0.662 | 0.599 | 0.293 | 0.363 |
| HCC-78 | 0.81 | 0.938 | 1.06 | 1.12 | 0.953 | 1.08 | 1.06 | 0.708 | 0.48 | 0.869 | 0.897 | 0.798 | 0.874 | 0.335 | 0.385 | 0.397 | 0.386 | 0.323 |
